According to ChEMBL document CHEMBL1142974, “Design, synthesis, and evaluation of the antiproliferative activity of a series of novel fused xanthenone aminoderivatives in human breast cancer cells” (J Med Chem, 2007):
Activity calls are given as the source filed them. No cut-off for these calls is given here.

Legend:
[1] = test system: MDA-MB-231; experiment: Growth inhibition of human MDA-MB-231 cells at 100 uM by WST-1 method after 72 hrs; format: functional, cell-based
[2] = test system: MDA-MB-231; experiment: Antiproliferative activity against human MDA-MB-231 cells by WST-1 method after 72 hrs; format: functional, cell-based; settings: MDA-MB-231, 72 h

| Compound | IC50 [2] [µM] | Activity [1] |
| --- | --- | --- |
| CN(C)CCNc1cc2nc[nH]c2c2oc3ccccc3c(=O)c12 | – | Active |
| CN(C)CCn1nc2c3c(c4[nH]cnc4cc31)Oc1ccccc1-2 | 6.5 | – |
| CCN(CC)CCNc1cc2nc[nH]c2c2oc3ccccc3c(=O)c12 | – | Active |

Continued, in another order:

| IC50 [2] [µM] | Compound | Activity [1] |
| --- | --- | --- |
| 18 | CCN(CC)CCn1nc2c3c(c4[nH]c(C)nc4cc31)Oc1ccccc1-2 | – |
| 17 | Cc1nc2cc3c4c(nn3CCN(C)C)-c3ccccc3Oc4c2[nH]1 | – |
| 8.5 | CCN(CC)CCn1nc2c3c(c4[nH]cnc4cc31)Oc1ccccc1-2 | – |
